Measurements reported in patent US20250270208A1, “BICYCLIC HETEROCYCLES AS MRGPRX2 ANTAGONISTS” (Incyte Corporation, priority 2023, published 2025).

Experiments:
Assay type in all cases: cell-based
MRGPRX2 [1] = biological target: T1, MRGPRX2 (Homo sapiens, UniProt Q96LB1); experiment: MRGPRX2 FLIPR calcium mobilization assay; set-up: host or cells: CHO-K1; details: CHO-K1 cells stably expressing human MRGPRX2; Ca2+ release; agonist Cortistatin-14 at EC80
T1 sequence (Q96LB1 1-330): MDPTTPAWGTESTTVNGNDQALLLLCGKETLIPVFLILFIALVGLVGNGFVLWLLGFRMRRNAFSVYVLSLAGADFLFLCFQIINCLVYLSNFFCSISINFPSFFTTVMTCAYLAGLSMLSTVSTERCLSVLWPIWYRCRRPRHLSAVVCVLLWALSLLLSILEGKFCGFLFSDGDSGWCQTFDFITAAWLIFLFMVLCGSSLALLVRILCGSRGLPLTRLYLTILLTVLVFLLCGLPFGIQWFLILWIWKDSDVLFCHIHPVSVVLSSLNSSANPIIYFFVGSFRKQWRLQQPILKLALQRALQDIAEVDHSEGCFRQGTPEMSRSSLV
Protocol: Chinese hamster ovary (CHO-K1) cells stably expressing human MRGPRX2 were purchased from Genescript (Piscataway, NJ). The cells were maintained in culture medium (Ham's F-12K) containing 10% (v/v) FBS, 200 μg/mL Zeocin, 100 units/mL penicillin G and 100 μg/mL streptomycin (Life Technologies, Carlsbad, CA). For the assay, the cells were harvested and resuspended with culture medium without Zeocin before plating at 8000 cells per well in 20 μL in 384-well black clear bottom cell culture plates (VWR, Radnor, PA). After 24 hour culture at 37° C. and 5% CO2, the cells were loaded with 20 μL/well of calcium dye (FLIPR Calcium 6 Assay Kit, Molecular Devices, San Jose, CA) diluted in loading buffer (1× Hank's Balanced Salt Solution (HBSS), 5 mM probenecid, 20 mM 4-(2-hydroxyethyl)-1-piperazineethanesulfonic acid (HEPES), pH 7.4, VWR, Radnor, PA) followed with 45 min incubation at 37° C. and 40 min. at r.t. in the dark. Cells were then treated with the addition of 10 uL/well test compounds with a range of increasing concentrations diluted in the assay buffer (1×HBSS, 20 mM HEPES, pH 7.4, VWR, Radnor, PA) with FLIPR Penta (Molecular Devices. San Jose, CA) and incubated for 30 min. at r.t. Ca^2+ release was measured with FLIPR Penta with 10 s basal fluorescence measurement, then 12.5 μL of 5× agonist Cortistatin-14 (Tocris, Minneapolis, MN) at final concentration corresponding to the EC80 were added followed with continued fluorescence signal monitoring for an additional 110 s. The base line adjusted (median of first 10 s base line) max value of the Relative Fluorescence Unit (RFU) was plotted against compound concentrations. Wells with no compound were served as the positive controls, and wells with high concentration of reference antagonist were used as negative controls. IC50 curves were globally fitted with 3- or 4-parameter Hill equation in a Genedata Screener (Genedata Basel, Switzerland).

MRGPRX2 [2] = biological target: T1, MRGPRX2; experiment: MRGPRX2 β-Arrestin assay; set-up: host or cells: PathHunter CHO-K1; details: PathHunter CHO-K1 MRGPRX2 β-Arrestin cell line; agonist Cortistatin 14 0.25 μM
Source text: This assay measures compound inhibition of β-Arrestin recruitment, which is part of the G protein-independent pathway that results from the ligand-activated GPCR phosphorylation by specific GPCR kinases. The PathHunter CHO-K1 MRPGRX2 β-Arrestin Cell line stably expressing ProLink tagged MRGPRX2 and Enzyme Acceptor Tagged β-Arrestin was purchased from Eurofins DiscoverX, (Fremont, CA).
The cells were maintained in culture medium from the Europhins DiscoverX Cell Culture Kit-107 which includes FBS, hygromycin B and G418. For the assay, the cells were harvested and were resuspended with Cell Plating Reagent 2 (Eurofins DiscoverX). Cells were added 10000 cells in 25 μL/well to a 384-well black cell culture plate (Greiner VWR, Radnor, PA) which contained 125 nL/well of compound at a selected serially diluted concentration range or DMSO. The plate was incubated at 37° C. with 5% CO2 for 1 h. 2 μL/well of agonist Cortistatin 14 was diluted in Protein Dilution Buffer, (Eurofins DiscoverX) for a final concentration of 0.25 μM, was added and the plate was incubated at 37° C. with 5% CO2 for 90 min. 14 μL/well of Detection Reagent Mix (PathHunter Detection Kit, Eurofins DiscoverX) was added to the plates and further incubated for 1 h in the dark. Plates were read on the PHERAstar microplate reader (BMG Labtech Cary, NC) measuring luminescence 0.1 to 1 s per well. Data was normalized using DMSO only wells and wells with high concentration of reference antagonist as controls. Compound IC50 curves were globally fitted with 3- or 4-parameter Hill equation in a Genedata Screener (Genedata Basel, Switzerland).

MRGPRX2 [3] = biological target: T1, MRGPRX2; experiment: MRGPRX2 IP1 HTRF assay; set-up: host or cells: CHO-K1; details: CHO-K1 cells stably expressing human MRGPRX2; IP1 accumulation; agonist Cortistatin 14 1 μM
Protocol: This assay measures compound inhibition of myo-Inositol 1 phosphate (IP1) accumulation in CHO-K1 cells. Chinese hamster ovary (CHO-K1) cells stably expressing human MRGPRX2 were purchased from GenScript (Piscataway, NJ).
For the HTRF IP1 determination, an IP-One GqKit (Perkin Elmer Cisbio, Waltham, MA), which includes all reagents and buffers in this protocol, was used. The cells were maintained in culture medium (Ham's F-12K) containing 10% (v/v) FBS, and 200 μg/mL Zeocin. For the assay, the cells were harvested and resuspended in culture medium with 2% FBS and without Zeocin, then were passed through a 40 μm filter. Cells were added at 20000 cells in a 5 μL/well to a 384-well white small volume cell culture plate (Greiner VWR, Radnor, PA) which contained 50 nL/well of test compound serially diluted at a selected concentration range in DMSO. 5 μL/well of prepared 2× Stimulation Buffer 2 was then added to plates and was incubated at 37° C. with 5% CO2 for 1 h. 5 μL/well of agonist Cortistatin 14 (Bio-TechneR&D Systems, Minneapolis, MN) in 1× Stimulation Buffer 2, for a 1 μM final concentration, was then added to plates and incubated at 37° C. with 5% CO2 for 1 h. 6 μL/well of 1:20 diluted Detection Reagent Mix (d2 and Cryptate) was added to the plates and incubated for 1 h in the dark. Plates were read on the PHERAstar microplate reader (BMG Labtech Cary, NC) to determine the HTRF ratio of the acceptor and donor emission signals. The IP1 concentrations were calculated from a standard curve following the IP-One GQ kit instructions. Wells with DMSO only and wells with high concentration of reference antagonist were used as controls for normalization. Compound IC50 curves were globally fitted with 3- or 4-parameter Hill equation in a Genedata Screener (Genedata Basel, Switzerland).

| Compound | IC50 (MRGPRX2 [1]) [nM] | IC50 (MRGPRX2 [2]) [nM] | IC50 (MRGPRX2 [3]) [nM] |
| --- | --- | --- | --- |
| Cn1cnc2ccnc(N[C@@H]3CCC[C@H](Nc4cc(C(F)(F)F)nc5ccc(F)cc45)C3)c21 [Example 14, (1S,3R)-N^1-(6-Fluoro-2-(trifluoromethyl)quinolin-4-yl)-N^3-(3-methyl-3H-imidazo[4,5-c]pyridin-4-yl)cyclohexane-1,3-diamine] | 0.1 to 100 | 0.1 to 100 | 0.1 to 100 |
| Cn1cnc2ccnc(N[C@@H]3CCC[C@H](Nc4cc(C(F)(F)F)nc5ccccc45)C3)c21 [Example 15, (1R,3S)-N^1-(3-Methyl-3H-imidazo[4,5-c]pyridin-4-yl)-N^3-(2-(trifluoromethyl)quinolin-4-yl)cyclohexane-1,3-diamine] | 0.1 to 100 | 0.1 to 100 | 100 to 1000 |
| Cn1cnc2ccnc(N[C@H]3CC[C@@H](Nc4cc(C(F)(F)F)nc5ccccc45)CC3)c21 [Example 22, (1s,4s)-N^1-(3-Methyl-3H-imidazo[4,5-c]pyridin-4-yl)-N^4-(2-(trifluoromethyl)quinolin-4-yl)cyclohexane-1,4-diamine] | 0.1 to 100 | 0.1 to 100 | 100 to 1000 |
| Cc1cc2c(N[C@@H]3CCC[C@H](Nc4cc(C(F)(F)F)nc5ccc(Cl)cc45)C3)nccn2n1 [Example 11, (1S,3R)-N^1-(6-Chloro-2-(trifluoromethyl)quinolin-4-yl)-N^3-(2-methylpyrazolo[1,5-a]pyrazin-4-yl)cyclohexane-1,3-diamine] | 0.1 to 100 | 0.1 to 100 | 0.1 to 100 |
| FC(F)(F)c1cc(N[C@H]2CCC[C@@H](Nc3nccc4ncccc34)C2)c2cc(Cl)ccc2n1 [Example 5, (1S,3R)-N^1-(6-Chloro-2-(trifluoromethyl)quinolin-4-yl)-N^3-(1,6-naphthyridin-5-yl)cyclohexane-1,3-diamine] | 0.1 to 100 | 0.1 to 100 | 0.1 to 100 |
| Cn1c(C#N)cnc1N[C@@H]1CCC[C@H](Nc2cc(C(F)(F)F)nc3ccc(Cl)cc23)C1 [Example 20, 2-(((1R,3S)-3-((6-Chloro-2-(trifluoromethyl)quinolin-4-yl)amino)cyclohexyl)amino)-1-methyl-1H-imidazole-5-carbonitrile] | 0.1 to 100 | 0.1 to 100 | 0.1 to 100 |
| Cc1ccc2nc(C(F)(F)F)cc(N[C@H]3CCC[C@@H](Nc4nccc5ncn(C)c45)C3)c2c1 [Example 17, (1S,3R)-N^1-(6-Methyl-2-(trifluoromethyl)quinolin-4-yl)-N^3-(3-methyl-3H-imidazo[4,5-c]pyridin-4-yl)cyclohexane-1,3-diamine] | 0.1 to 100 | 0.1 to 100 | 0.1 to 100 |
| FC(F)(F)c1cc(N[C@H]2CCC[C@@H](Nc3nnc4n3CCCC4)C2)c2cc(Cl)ccc2n1 [Example 35, (1S,3R)-N^1-(6-Chloro-2-(trifluoromethyl)quinolin-4-yl)-N^3-(5,6,7,8-tetrahydro-[1,2,4]triazolo[4,3-a]pyridin-3-yl)cyclohexane-1,3-diamine] | 0.1 to 100 | 0.1 to 100 | 0.1 to 100 |
| Cn1c(N[C@@H]2CCC[C@H](Nc3cc(C(F)(F)F)nc4ccc(Cl)cc34)C2)nc2cccnc21 [Example 21, (1S,3R)-N^1-(6-Chloro-2-(trifluoromethyl)quinolin-4-yl)-N^3-(3-methyl-3H-imidazo[4,5-b]pyridin-2-yl)cyclohexane-1,3-diamine] | 0.1 to 100 | 0.1 to 100 | 0.1 to 100 |
| FC(F)(F)c1cc(N[C@H]2CCC[C@@H](Nc3nccn4cncc34)C2)c2cc(Cl)ccc2n1 [Example 9, (1S,3R)-N^1-(6-Chloro-2-(trifluoromethyl)quinolin-4-yl)-N^3-(imidazo[1,5-a]pyrazin-8-yl)cyclohexane-1,3-diamine] | 0.1 to 100 | 0.1 to 100 | 0.1 to 100 |
| FC(F)(F)c1cc(N[C@H]2CCC[C@@H](Nc3nnc4n3CCOC4)C2)c2cc(Cl)ccc2n1 [Example 36, (1S,3R)-N^1-(6-Chloro-2-(trifluoromethyl)quinolin-4-yl)-N^3-(5,6-dihydro-8H-[1,2,4]triazolo[3,4-c][1,4]oxazin-3-yl)cyclohexane-1,3-diamine] | 0.1 to 100 | 0.1 to 100 | 0.1 to 100 |
| FC(F)(F)c1cc(N[C@H]2CCC[C@@H](Nc3nnc4ccccn34)C2)c2cc(Cl)ccc2n1 [Example 24, (1R,3S)-N^1-([1,2,4]Triazolo[4,3-a]pyridin-3-yl)-N^3-(6-chloro-2-(trifluoromethyl)quinolin-4-yl)cyclohexane-1,3-diamine] | 0.1 to 100 | 0.1 to 100 | 0.1 to 100 |
| Fc1ccc2nc(C(F)(F)F)cc(N[C@H]3CCC[C@@H](Nc4nccc5ncccc45)C3)c2c1 [Example 25, (1S,3R)-N^1-(6-Fluoro-2-(trifluoromethyl)quinolin-4-yl)-N^3-(1,6-naphthyridin-5-yl)cyclohexane-1,3-diamine] | 0.1 to 100 | 0.1 to 100 | 0.1 to 100 |
| Cn1cnc2ccnc(N[C@@H]3CCC[C@H](Nc4cc(C(F)(F)F)nc5ccc(Cl)cc45)C3)c21 [Example 4, (1S,3R)-N^1-(6-Chloro-2-(trifluoromethyl)quinolin-4-yl)-N^3-(3-methyl-3H-imidazo[4,5-c]pyridin-4-yl)cyclohexane-1,3-diamine] | 0.1 to 100 | 0.1 to 100 | 0.1 to 100 |
| FC(F)(F)c1cc(N[C@H]2CC[C@@H](Nc3nccc4ncccc34)CC2)c2cc(Cl)ccc2n1 [Example 13, (1s,4s)-N^1-(6-Chloro-2-(trifluoromethyl)quinolin-4-yl)-N^4-(1,6-naphthyridin-5-yl)cyclohexane-1,4-diamine] | 0.1 to 100 | 0.1 to 100 | 0.1 to 100 |
